Reference: ChEMBL document CHEMBL1134843, “Tyrosine kinase inhibitors. 18. 6-Substituted 4-anilinoquinazolines and 4-anilinopyrido[3,4-d]pyrimidines as soluble, irreversible inhibitors of the epidermal growth factor receptor” (J Med Chem, 2001)
Values belong to the compound of their own block, whether it stands above or below them.

Columns and labels:
[1] = tested on: A-431; test: In vivo activity in A431 tumor bearing mice, maximum dose (schedule 10-24 days); format: functional
[2] = tested on: A-431; test: In vivo activity in A431 tumor bearing mice, relative time required for treated and control tumors to reach 750 mg (schedule 12-26 days); format: functional
[3] = tested on: A-431; test: In vivo activity in A431 tumor bearing mice, ratio of treated and control tumor mass day 26; format: functional
[4] = tested on: A-431; test: In vivo activity in A431 tumor bearing mice, maximum weight loss days 12-26; format: functional
[5] = tested on: NCI-H125; test: In vivo activity in H125 tumor bearing mice, maximum dose (schedule 15-29 days); format: functional, Mus musculus
[6] = tested on: NCI-H125; test: In vivo activity in H125 tumor bearing mice, relative time required for treated and control tumors to reach 750 mg (schedule 15-29 days); format: functional, Mus musculus
[7] = tested on: NCI-H125; test: In vivo activity in H125 tumor bearing mice, ratio of treated and control tumor mass day 29; format: functional, Mus musculus
[8] = tested on: NCI-H125; test: In vivo activity in H125 tumor bearing mice, maximum weight loss days 15-29; format: functional, Mus musculus
[9] = tested on: MCF7; test: In vivo activity in MCF-7 tumor bearing mice, maximum dose (schedule 11-25 days); format: functional
[10] = tested on: MCF7; test: In vivo activity in MCF-7 tumor bearing mice, maximum weight loss days 11-25; format: functional
[11] = tested on: MCF7; test: In vivo activity in MCF-7 tumor bearing mice, ratio of treated and control tumor mass day 25; format: functional
[12] = tested on: MCF7; test: In vivo activity in MCF-7 tumor bearing mice, relative time required for treated and control tumors to reach 750 mg (schedule 11-25 days); format: functional
[13] = molecular target: Epidermal growth factor receptor (Homo sapiens, UniProt P00533)
Description: Inhibition of phosphorylation of a polyglutamic acid/tyrosine random copolymer by EGFR enzyme (from human A431 carcinoma cell vesicles)

[14] = molecular target: Receptor tyrosine-protein kinase erbB-2 (Homo sapiens, UniProt P04626); test: Inhibition of heregulin-stimulated autophosphorylation of erbB2 in MDA-MB 453 cells; format: cell-based
[15] = tested on: A-431; test: In vivo activity in A431 tumor bearing mice, maximum dose (schedule 12-26 days); format: functional
[16] = tested on: MCF7; test: In vivo activity in MCF-7 tumor bearing mice, maximum dose (schedule 17-31 days); format: functional
[17] = tested on: MCF7; test: In vivo activity in MCF-7 tumor bearing mice, ratio of treated and control tumor mass day 31; format: functional
[18] = tested on: MCF7; test: In vivo activity in MCF-7 tumor bearing mice, relative time required for treated and control tumors to reach 750 mg (schedule 17-31 days); format: functional

Receptor tyrosine-protein kinase erbB-2, sequence (P04626 whole entry): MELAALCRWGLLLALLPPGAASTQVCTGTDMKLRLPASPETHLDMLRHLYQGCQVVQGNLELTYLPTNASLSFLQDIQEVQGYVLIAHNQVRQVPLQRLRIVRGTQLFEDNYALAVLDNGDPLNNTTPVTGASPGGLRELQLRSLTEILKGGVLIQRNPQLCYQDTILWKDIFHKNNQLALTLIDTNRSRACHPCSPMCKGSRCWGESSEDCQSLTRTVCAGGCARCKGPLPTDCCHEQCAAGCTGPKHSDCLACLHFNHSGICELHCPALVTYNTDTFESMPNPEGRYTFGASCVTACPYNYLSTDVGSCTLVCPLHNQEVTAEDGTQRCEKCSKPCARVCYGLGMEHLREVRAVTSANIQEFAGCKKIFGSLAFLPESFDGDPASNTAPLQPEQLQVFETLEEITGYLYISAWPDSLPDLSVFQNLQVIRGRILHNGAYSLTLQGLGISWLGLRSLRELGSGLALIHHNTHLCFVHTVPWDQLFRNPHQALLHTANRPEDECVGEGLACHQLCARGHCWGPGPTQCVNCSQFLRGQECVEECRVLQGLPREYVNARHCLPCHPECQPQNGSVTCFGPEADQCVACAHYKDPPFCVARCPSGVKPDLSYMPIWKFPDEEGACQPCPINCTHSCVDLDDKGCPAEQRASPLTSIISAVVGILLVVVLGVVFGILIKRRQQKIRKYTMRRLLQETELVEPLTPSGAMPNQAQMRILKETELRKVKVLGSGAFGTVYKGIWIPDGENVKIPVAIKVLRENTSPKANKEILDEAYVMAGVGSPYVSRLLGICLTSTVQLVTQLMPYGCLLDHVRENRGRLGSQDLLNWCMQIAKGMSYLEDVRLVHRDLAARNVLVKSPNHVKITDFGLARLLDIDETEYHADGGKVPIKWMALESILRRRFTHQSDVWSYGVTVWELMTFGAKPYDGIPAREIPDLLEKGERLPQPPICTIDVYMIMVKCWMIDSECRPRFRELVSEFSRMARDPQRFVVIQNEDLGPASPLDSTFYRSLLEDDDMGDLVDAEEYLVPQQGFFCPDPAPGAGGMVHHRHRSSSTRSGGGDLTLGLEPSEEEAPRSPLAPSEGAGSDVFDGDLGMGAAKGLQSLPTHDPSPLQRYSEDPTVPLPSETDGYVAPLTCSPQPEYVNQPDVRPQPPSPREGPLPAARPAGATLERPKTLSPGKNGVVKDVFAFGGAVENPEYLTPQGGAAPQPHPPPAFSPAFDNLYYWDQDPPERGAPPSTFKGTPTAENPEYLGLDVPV
Epidermal growth factor receptor, sequence (P00533 whole entry): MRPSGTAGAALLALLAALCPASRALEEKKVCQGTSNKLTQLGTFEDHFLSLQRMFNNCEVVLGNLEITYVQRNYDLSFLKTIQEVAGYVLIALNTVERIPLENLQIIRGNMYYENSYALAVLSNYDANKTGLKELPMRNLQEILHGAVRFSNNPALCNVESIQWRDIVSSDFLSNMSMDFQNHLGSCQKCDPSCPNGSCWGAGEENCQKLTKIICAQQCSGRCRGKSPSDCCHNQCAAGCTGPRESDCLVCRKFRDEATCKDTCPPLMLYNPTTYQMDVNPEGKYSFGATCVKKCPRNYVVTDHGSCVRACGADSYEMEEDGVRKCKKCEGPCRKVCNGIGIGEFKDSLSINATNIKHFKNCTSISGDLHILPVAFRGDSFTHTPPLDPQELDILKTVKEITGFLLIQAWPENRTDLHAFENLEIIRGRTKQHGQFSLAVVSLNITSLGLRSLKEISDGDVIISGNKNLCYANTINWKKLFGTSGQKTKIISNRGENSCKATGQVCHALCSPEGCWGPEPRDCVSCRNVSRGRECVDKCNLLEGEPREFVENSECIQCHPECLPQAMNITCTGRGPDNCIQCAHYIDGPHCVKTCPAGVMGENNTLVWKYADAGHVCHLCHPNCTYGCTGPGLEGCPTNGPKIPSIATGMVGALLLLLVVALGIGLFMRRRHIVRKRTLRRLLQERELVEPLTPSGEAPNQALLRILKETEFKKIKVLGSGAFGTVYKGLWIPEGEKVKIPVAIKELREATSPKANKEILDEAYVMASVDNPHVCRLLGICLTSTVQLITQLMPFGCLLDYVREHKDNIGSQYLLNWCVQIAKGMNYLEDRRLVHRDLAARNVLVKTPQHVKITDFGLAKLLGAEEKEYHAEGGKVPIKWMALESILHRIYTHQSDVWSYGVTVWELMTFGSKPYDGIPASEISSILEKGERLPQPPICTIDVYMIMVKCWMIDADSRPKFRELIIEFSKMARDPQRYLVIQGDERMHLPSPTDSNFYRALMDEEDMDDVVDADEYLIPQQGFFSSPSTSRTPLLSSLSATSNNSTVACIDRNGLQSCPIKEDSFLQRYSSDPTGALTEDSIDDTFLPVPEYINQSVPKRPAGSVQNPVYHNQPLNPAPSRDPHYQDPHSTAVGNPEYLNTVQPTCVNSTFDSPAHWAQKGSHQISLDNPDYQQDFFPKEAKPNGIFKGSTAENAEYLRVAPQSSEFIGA

Structure (SMILES): C=CC(=O)N(C)c1cc2c(Nc3cccc(Br)c3)ncnc2cn1
HDT [1]: 200 mg/kg | T-C [2]: 5.2 days | T/C [3]: 62% | Weight change [4]: -0.1 g | HDT [5]: 200 mg/kg | T-C [6]: 7.3 days | T/C [7]: 56% | Weight change [8]: -0.4 g | HDT [9]: 200 mg/kg | Weight change [10]: -0.3 g | T/C [11]: 88% | T-C [12]: 1.5 days

Structure (SMILES): O=S(=O)(CCO)c1cc2c(Nc3cccc(Br)c3)ncnc2cn1
IC50 [13]: 93.5 nM

Structure (SMILES): CN(C)CCCNC(=O)/C=C/C(=O)Nc1ccc2ncnc(Nc3cccc(Br)c3)c2c1
IC50 [14]: 207 nM

Second part, led by results:

IC50 [14]: 5 nM
Structure (SMILES): O=C(/C=C/C(=O)Nc1cc2c(Nc3cccc(Br)c3)ncnc2cn1)NCCCN1CCOCC1

IC50 [14]: 8.1 nM
Structure (SMILES): O=C(/C=C/C(=O)Nc1cc2c(Nc3cccc(Br)c3)ncnc2cn1)NCCCn1ccnc1

IC50 [14]: 24 nM
Structure (SMILES): O=C(/C=C/C(=O)Nc1cc2c(Nc3ccc(F)c(Cl)c3)ncnc2cn1)NCCCN1CCOCC1
HDT [15]: 200 mg/kg | T-C [2]: 5.2 days | T/C [3]: 70% | Weight change [4]: -0.1 g | HDT [5]: 200 mg/kg | T-C [6]: 7.9 days | T/C [7]: 23% | Weight change [8]: -0.3 g | HDT [16]: 200 mg/kg | T/C [17]: 124% | T-C [18]: 6.8 days

IC50 [14]: 14 nM
Structure (SMILES): CCN(CC)CCCNC(=O)/C=C/C(=O)Nc1cc2c(Nc3cccc(Br)c3)ncnc2cn1

IC50 [14]: 13 nM
Structure (SMILES): CN(C)CCCNC(=O)/C=C/C(=O)Nc1cc2c(Nc3cccc(Br)c3)ncnc2cn1
